US7989438B2, “Therapeutic compounds” (Istituto di Ricerche di Biologia Molecolare P. Angeletti SpA, priority 2007, dated 2011)

What follows are compounds tested on HCV subgenomic replication (assay: Cell based HCV replication assay (subgenomic replicon in Huh-7 cells, NS3 Cell-ELISA)). Conditions: Hepatitis C virus, Huh-7; Table 3, various macrocycles; activity ranges; read-out: IC50* (nM), Inhibition of HCV subgenomic replication.
Method in brief: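 Huh-7 cells stably carrying the I377neo/NS3-3′/wt subgenomic replicon, seeded at 10^4 cells/well in DMEM/10% FCS and exposed to inhibitor for 96 h. NS3 expression was measured by Cell-ELISA (mAb 10E5/24, alkaline phosphatase, absorbance 405/620 nm), in duplicate. IC50 was fitted to the Hill equation, with background from parental Huh-7 cells.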

Compound	IC50
O=C1NS(=O)(=O)N2CCN(CCN(CCF)[C@H]3COc4ccccc4-c4c(C5CCCCC5)c5ccc1cc5n4C3)CC2 [Example 308, (20R)-30-cyclohexyl-21-(2-fluoroethyl)-18-oxa-2-thia-1,3,10,21,24-pentaazahexacyclo[22.2.2.1^5,9.1^8,11.1^10,20.0^12,17]hentriaconta-5(31),6,8,11(30),12,14,16-heptaen-4-one 2,2-dioxide]	25 to 150 nM
CN1C2CCN(CC2)CCN(C)S(=O)(=O)NC(=O)c2ccc3c(C4CCCCC4)c4n(c3c2)C[C@@H]1COc1ccccc1-4 [Example 302, (3R)-31-cyclohexyl-2,22-dimethyl-5-oxa-21-thia-2,13,20,22,25-pentaazahexacyclo[23.2.2.1^3,13.1^12,15.1^14,18.0^6,11]dotriaconta-6,8,10,12(31),14(30),15,17-heptaen-19-one 21,21-dioxide]	< 25 nM
CN(C)CCN1CCOC2CCN(CC2)S(=O)(=O)NC(=O)c2ccc3c(C4CCCCC4)c4n(c3c2)C[C@@H]1COc1ccccc1-4 [Example 307, (20R)-31-cyclohexyl-21-[2-(dimethylamino)ethyl]-18,24-dioxa-2-thia-1,3,10,21-tetraazahexacyclo[23.2.2.1^5,9.1^8,11.1^10,20.0^12,17]dotriaconta-5(32),6,8,11(31),12,14,16-heptaen-4-one 2,2-dioxide]	150 to 500 nM

Same assay, conditions: Hepatitis C virus, Huh-7; Table 5, various macrocycles; activity ranges; read-out: IC50* (nM), Inhibition of HCV subgenomic replication

Compound	IC50
O=C1NS(=O)(=O)N2CCCN(CCCC3COc4ccccc4-c4c(C5CCCCC5)c5ccc1cc5n4C3)CC2 (stereo not shown) [Example 508, 31-cyclohexyl-18-oxa-2-thia-1,3,10,24-tetraazahexacyclo[22.3.2.1^5,9.1^8,11.1^10,20.0^12,17]dotriaconta-5(32),6,8,11(31),12,14,16-heptaen-4-one 2,2-dioxide]	25 to 150 nM
CN1CCC2COc3ccccc3-c3c([C@H]4CCCC[C@@H]4F)c4ccc(cc4n3C2)C(=O)NS(=O)(=O)N2CCC1CC2 (single isomer, unassigned) [Example 502, 30-[(1R,2S) or (1S,2R)-2-fluorocyclohexyl]-23-methyl-18-oxa-2-thia-1,3,10,23-tetraazahexacyclo[22.2.2.1^5,9.1^8,11.1^10,20.0^12,17]hentriaconta-5(31),6,8,11(30),12,14,16-heptaen-4-one 2,2-dioxide]	25 to 150 nM

Same assay, conditions: Hepatitis C virus; Table A; activity ranges; Huh-7 replicon cells, 96 hours; read-out: IC50 (nM), Inhibition of HCV subgenomic replication

Compound	IC50
O=C1NS(=O)(=O)N2CCN(CCCC3COc4ccccc4-c4c(C5CCCCC5)c5ccc1cc5n4C3)CC2 (stereo not shown) [Compound A34, 30-cyclohexyl-18-oxa-2-thia-1,3,10,24-tetraazahexacyclo[22.2.2.1^5,9.1^8,11.1^10,20.0^12,17]hentriaconta-5(31),6,8,11(30),12,14,16-heptaen-4-one 2,2-dioxide]	25 to 150 nM

Same assay, conditions: Table 2, various macrocycles; activity ranges; read-out: IC50* (nM), Inhibition of HCV subgenomic replication

Compound	IC50
CC(C)N1CCN(C)[C@H]2COc3cc(F)ccc3-c3c(C4CCCCC4)c4ccc(cc4n3C2)C(=O)NS(=O)(=O)N(C)CC1 [Example 207, (7R)-14-cyclohexyl-3-fluoro-21-isopropyl-18,24-dimethyl-7,8-dihydro-6H-7,11-(epiminoethanoiminoethanoiminothioiminomethano)-indolo[1,2-e][1,5]benzoxazocin-15-one 17,17-dioxide]	< 25 nM
CCN1CCN(C)[C@H]2COc3cc(C)ccc3-c3c(C4CCCCC4)c4ccc(cc4n3C2)C(=O)NS(=O)(=O)N(C)CC1 [Example 215, (7R)-14-cyclohexyl-21-ethyl-3,18,24-trimethyl-7,8-dihydro-6H-7,11-(epiminoethanoiminoethanoiminothioiminomethano)-indolo[1,2-e][1,5]benzoxazocin-15-one 17,17-dioxide]	< 25 nM
CN(C)CCN1CCN(C)C2COc3ccccc3-c3c(C4CCCCC4)c4ccc(cc4n3C2)C(=O)NS(=O)(=O)N(C)CC1 [Example 220, (7R)-14-cyclohexyl-21-[2-(dimethylamino)ethyl]-18,24-dimethyl-7,8-dihydro-6H-7,11-(epiminoethanoiminoethanoiminothioiminomethano)-indolo[1,2-e][1,5]benzoxazocin-15-one 17,17-dioxide]	< 25 nM

Same assay, conditions: Table 4, various macrocycles; activity ranges; read-out: IC50* (nM), Inhibition of HCV subgenomic replication

Compound	IC50
C=CCc1cccc2c1OCC1Cn3c-2c(C2CCCCC2)c2ccc(cc23)C(=O)NS(=O)(=O)N(C)CCN(CC)CCN1C [Example 403, (7R)-4-allyl-14-cyclohexyl-21-ethyl-18,24-dimethyl-7,8-dihydro-6H-7,11-(epiminoethanoiminoethanoiminothioiminomethano)-indolo[1,2-e][1,5]benzoxazocin-15-one 17,17-dioxide]	25 to 150 nM
CC(C)N1CCN(C)C2COc3c(F)cccc3-c3c(C4CCCCC4)c4ccc(cc4n3C2)C(=O)NS(=O)(=O)N(C)CC1 [Example 405, (7R)-14-cyclohexyl-4-fluoro-21-isopropyl-18,24-dimethyl-7,8-dihydro-6H-7,11-(epiminoethanoiminoethanoiminothioiminomethano)-indolo[1,2-e][1,5]benzoxazocin-15-one 17,17-dioxide]	< 25 nM
CN1CCN(C)[C@H]2COc3c(CC4CC4)cccc3-c3c(C4CCCCC4)c4ccc(cc4n3C2)C(=O)NS(=O)(=O)N(C)CC1 [Example 407, (7R)-14-cyclohexyl-4-(cyclopropylmethyl)-18,21,24-trimethyl-7,8-dihydro-6H-7,11-(epiminoethanoiminoethanoiminothioiminomethano)-indolo[1,2-e][1,5]benzoxazocin-15-one 17,17-dioxide]	< 25 nM
CCN1CCN(C)C2COc3c(F)cccc3-c3c(C4CCCCC4)c4ccc(cc4n3C2)C(=O)NS(=O)(=O)N(C)CC1 [Example 404, (7R)-14-cyclohexyl-21-ethyl-4-fluoro-18,24-dimethyl-7,8-dihydro-6H-7,11-(epiminoethanoiminoethanoiminothioiminomethano)-indolo[1,2-e][1,5]benzoxazocin-15-one 17,17-dioxide]	< 25 nM
CN1CCNCCN(C)S(=O)(=O)NC(=O)c2ccc3c(C4CCCCC4)c4n(c3c2)CC1COc1ccccc1-4 [Example 401, (7S)-14-cyclohexyl-18,24-dimethyl-7,8-dihydro-6H-7,11-(epiminoethanoiminoethanoiminothioiminomethano)-indolo[1,2-e][1,5]benzoxazocin-15-one 17,17-dioxide]	25 to 150 nM

Same assay, conditions: Table 5, various macrocycles; activity ranges; read-out: IC50* (nM), Inhibition of HCV subgenomic replication

Compound	IC50
COc1cccc2c1OCC1CCCN(C)CCN(C)S(=O)(=O)NC(=O)c3ccc4c(C5CCCCC5)c-2n(c4c3)C1 [Example 510, (7R)-14-cyclohexyl-4-methoxy-18,21-dimethyl-7,8-dihydro-6H-7,11-(propanoiminoethanoiminothioiminomethano)indolo[1,2-e][1,5]benzoxazocin-15-one 17,17-dioxide]	< 25 nM
CC(C)N1CCCC2COc3ccccc3-c3c(C4CCCCC4)c4ccc(cc4n3C2)C(=O)NS(=O)(=O)N(C)CC1 (stereo not shown) [Example 509, 14-cyclohexyl-21-isopropyl-18-methyl-7,8-dihydro-6H-7,11-(propanoiminoethanoiminothioiminomethano)indolo[1,2-e][1,5]benzoxazocin-15-one 17,17-dioxide]	< 25 nM
COc1ccc2c(c1)OCC1CCN(C)CC(F)(F)CN(C)S(=O)(=O)NC(=O)c3ccc4c(C5CCCCC5)c-2n(c4c3)C1 [Example 524, (7R)-14-cyclohexyl-20,20-difluoro-3-methoxy-18,22-dimethyl-7,8-dihydro-6H-7,11-(ethanoiminopropanoiminothioiminomethano)indolo[1,2-e][1,5]benzoxazocin-15-one 17,17-dioxide]	150 to 500 nM
Cc1cccc2c1OCC1CCCN(C)CCN(C)S(=O)(=O)NC(=O)c3ccc4c(C5CCCCC5)c-2n(c4c3)C1 [Example 520, (7R)-14-cyclohexyl-4,18,21-trimethyl-7,8-dihydro-6H-7,11-(propanoiminoethanoiminothioiminomethano)indolo[1,2-e][1,5]benzoxazocin-15-one 17,17-dioxide]	< 25 nM

Same assay, conditions: Table A; activity ranges; Huh-7 replicon cells, 96 hours; read-out: IC50 (nM), Inhibition of HCV subgenomic replication

Compound	IC50
CCN1CCN(C)C2COc3ccccc3-c3c(C4CCCCC4)c4ccc(cc4n3C2)C(=O)NS(=O)(=O)N(C)CC1 [Compound A3, (7R)-14-cyclohexyl-21-ethyl-18,24-dimethyl-7,8-dihydro-6H-7,11-(epiminoethanoiminoethanoiminothioiminomethano)indolo[1,2-e][1,5]benzoxazocin-15-one 17,17-dioxide]	< 25 nM
CN1CCN(C)CC2Cn3c(c(C4CCCCC4)c4ccc(cc43)C(=O)NS(=O)(=O)N(C)CC1)-c1ccccc1N2C (stereo not shown) [Compound A9, 13-cyclohexyl-5,17,20,23-tetramethyl-6,7-dihydro-5H-10,6-(methanoiminothioiminoethanoiminoethanoiminomethano)indolo[1,2-d][1,4]benzodiazepin-14-one 16,16-dioxide]	25 to 150 nM
CN1CCOCCN(C)S(=O)(=O)NC(=O)c2ccc3c(C4CCCCC4)c4n(c3c2)C[C@@H]1COc1ccccc1-4 [Compound A20, (7R)-14-cyclohexyl-18,24-dimethyl-7,8-dihydro-6H-7,11-(epiminoethanooxyethanoiminothioiminomethano)indolo[1,2-e][1,5]benzoxazocin-15-one 17,17-dioxide]	25 to 150 nM
CCN1CCN(C)C2COc3c(OC)cccc3-c3c(C4CCCCC4)c4ccc(cc4n3C2)C(=O)NS(=O)(=O)N(C)CC1 [Compound A28, (7R)-14-cyclohexyl-21-ethyl-4-methoxy-18,24-dimethyl-7,8-dihydro-6H-7,11-(epiminoethanoiminoethanoiminothioiminomethano)indolo[1,2-e][1,5]benzoxazocin-15-one 17,17-dioxide]	< 25 nM
